Source: ChEMBL document CHEMBL1135045, “alpha(1)-Adrenoceptor antagonists. Rational design, synthesis and biological evaluation of new trazodone-like compounds” (Bioorg Med Chem Lett, 2002)

Tests used:
[1] = biological target: T1, Adrenergic receptor alpha-1 (Rattus norvegicus, UniProt P15823+P23944+P43140); experiment: Binding affinity by its ability to displace [3H]prazosin radioligand from Alpha-1 adrenergic receptor on rat cerebral cortex; format: tissue-based
T1 sequence (P15823 whole entry): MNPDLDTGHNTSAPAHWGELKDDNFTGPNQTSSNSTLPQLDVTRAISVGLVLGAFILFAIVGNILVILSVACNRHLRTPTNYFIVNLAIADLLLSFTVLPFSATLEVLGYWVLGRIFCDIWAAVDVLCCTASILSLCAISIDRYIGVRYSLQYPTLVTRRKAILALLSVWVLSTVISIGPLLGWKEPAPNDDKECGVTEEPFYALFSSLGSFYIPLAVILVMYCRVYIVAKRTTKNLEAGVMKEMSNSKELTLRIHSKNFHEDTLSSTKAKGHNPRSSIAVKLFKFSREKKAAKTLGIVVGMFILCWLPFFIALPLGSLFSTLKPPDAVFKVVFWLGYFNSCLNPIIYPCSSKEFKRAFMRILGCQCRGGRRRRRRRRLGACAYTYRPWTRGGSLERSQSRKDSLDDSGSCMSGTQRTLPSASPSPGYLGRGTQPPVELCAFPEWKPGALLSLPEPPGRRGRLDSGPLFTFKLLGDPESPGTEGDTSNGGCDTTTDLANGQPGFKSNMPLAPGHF
T1 sequence (P23944 whole entry): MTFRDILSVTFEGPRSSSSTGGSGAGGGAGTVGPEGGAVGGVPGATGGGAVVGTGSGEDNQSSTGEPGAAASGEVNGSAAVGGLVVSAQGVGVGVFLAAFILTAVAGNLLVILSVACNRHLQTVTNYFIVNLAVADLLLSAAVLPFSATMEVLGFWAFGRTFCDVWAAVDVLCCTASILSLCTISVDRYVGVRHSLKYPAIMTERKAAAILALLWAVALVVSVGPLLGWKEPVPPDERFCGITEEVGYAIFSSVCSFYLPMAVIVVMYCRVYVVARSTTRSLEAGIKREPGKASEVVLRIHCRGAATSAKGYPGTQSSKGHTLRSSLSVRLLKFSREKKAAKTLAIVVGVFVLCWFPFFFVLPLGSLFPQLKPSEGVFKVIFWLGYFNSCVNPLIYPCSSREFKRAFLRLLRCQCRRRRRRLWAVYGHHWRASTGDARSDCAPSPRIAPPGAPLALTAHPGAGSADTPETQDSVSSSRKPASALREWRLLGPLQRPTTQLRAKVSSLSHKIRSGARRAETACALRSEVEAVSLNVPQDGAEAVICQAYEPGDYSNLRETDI
T1 sequence (P43140 whole entry): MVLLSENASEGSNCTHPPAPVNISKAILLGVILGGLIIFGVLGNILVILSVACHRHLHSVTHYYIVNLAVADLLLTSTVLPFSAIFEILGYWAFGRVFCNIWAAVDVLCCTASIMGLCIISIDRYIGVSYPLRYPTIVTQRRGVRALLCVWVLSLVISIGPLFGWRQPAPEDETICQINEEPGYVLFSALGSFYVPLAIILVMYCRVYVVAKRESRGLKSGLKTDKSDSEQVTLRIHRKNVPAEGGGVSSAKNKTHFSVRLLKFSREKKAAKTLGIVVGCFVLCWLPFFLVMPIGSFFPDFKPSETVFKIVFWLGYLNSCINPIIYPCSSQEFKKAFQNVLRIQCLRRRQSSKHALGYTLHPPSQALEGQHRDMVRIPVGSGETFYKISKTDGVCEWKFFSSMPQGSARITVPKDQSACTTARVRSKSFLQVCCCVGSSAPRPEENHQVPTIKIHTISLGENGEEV

[2] = biological target: T2, Adrenergic receptor alpha-2 (Rattus norvegicus, UniProt P22086+P19328+P22909); experiment: Binding affinity by its ability to displace [3H]rauwolscine radioligand from Alpha-2 adrenergic receptor on rat cerebral cortex; format: tissue-based
T2 sequence (P22086 whole entry): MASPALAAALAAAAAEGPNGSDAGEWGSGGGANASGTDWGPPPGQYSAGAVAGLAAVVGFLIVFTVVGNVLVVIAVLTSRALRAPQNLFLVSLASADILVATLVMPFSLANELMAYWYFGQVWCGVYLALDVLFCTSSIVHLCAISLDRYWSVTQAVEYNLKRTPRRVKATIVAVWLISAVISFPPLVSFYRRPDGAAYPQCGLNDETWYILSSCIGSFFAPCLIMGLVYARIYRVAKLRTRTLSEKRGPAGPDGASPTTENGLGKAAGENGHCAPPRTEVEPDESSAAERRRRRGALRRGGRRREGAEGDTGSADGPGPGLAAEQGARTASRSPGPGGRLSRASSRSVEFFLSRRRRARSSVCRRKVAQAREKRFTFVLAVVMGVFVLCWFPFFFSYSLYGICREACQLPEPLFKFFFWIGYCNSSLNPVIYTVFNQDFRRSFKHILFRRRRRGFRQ
T2 sequence (P19328 whole entry): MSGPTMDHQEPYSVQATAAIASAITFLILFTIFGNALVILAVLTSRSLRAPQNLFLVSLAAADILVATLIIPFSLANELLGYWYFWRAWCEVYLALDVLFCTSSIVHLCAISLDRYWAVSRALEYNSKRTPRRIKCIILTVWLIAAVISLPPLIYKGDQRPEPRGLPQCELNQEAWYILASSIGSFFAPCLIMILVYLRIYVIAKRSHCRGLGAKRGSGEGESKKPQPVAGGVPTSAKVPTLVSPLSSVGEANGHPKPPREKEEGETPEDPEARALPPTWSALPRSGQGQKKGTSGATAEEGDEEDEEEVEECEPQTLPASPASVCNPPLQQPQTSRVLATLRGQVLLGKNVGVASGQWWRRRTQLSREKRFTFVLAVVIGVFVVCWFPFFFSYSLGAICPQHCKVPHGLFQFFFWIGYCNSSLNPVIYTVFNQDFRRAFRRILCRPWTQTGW
T2 sequence (P22909 whole entry): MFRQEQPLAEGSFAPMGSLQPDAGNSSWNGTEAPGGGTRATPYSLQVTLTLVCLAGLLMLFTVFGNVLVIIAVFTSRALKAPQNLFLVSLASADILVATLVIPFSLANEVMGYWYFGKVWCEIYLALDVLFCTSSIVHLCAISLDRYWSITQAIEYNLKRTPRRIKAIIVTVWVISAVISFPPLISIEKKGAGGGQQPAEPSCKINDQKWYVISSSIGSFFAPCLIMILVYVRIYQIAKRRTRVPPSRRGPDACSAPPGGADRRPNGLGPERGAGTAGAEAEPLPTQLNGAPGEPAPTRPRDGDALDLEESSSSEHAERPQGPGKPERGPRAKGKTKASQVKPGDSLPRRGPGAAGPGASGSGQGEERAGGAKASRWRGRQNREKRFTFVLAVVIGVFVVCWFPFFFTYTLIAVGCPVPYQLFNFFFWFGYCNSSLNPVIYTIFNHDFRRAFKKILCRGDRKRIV

Ki [1]	Ki [2]	Structure (SMILES)
1.1 nM	16 nM	COc1ccccc1N1CCN(CCCCn2nc(-n3cnc4ccccc43)ccc2=O)CC1
48.3 nM	436.6 nM	O=c1ccc(-n2ccnc2)nn1CCCN1CCN(c2ccccc2Cl)CC1
6.5 nM	158.3 nM	COc1ccccc1N1CCN(CCCn2nc(-n3cnc4ccccc43)ccc2=O)CC1
15.2 nM	44.7 nM	O=c1ccc(-n2cnc3ccccc32)nn1CCCN1CCN(c2ccccc2Cl)CC1
115.4 nM	673.4 nM	COc1ccccc1N1CCN(CCCn2nc(-n3ccnc3)ccc2=O)CC1
